# Reference: PubChem BioAssay (NCI)
#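 These data come from cells grown in 96-well plates and exposed to compound for 48 hours at five concentrations. GI50 is the concentration that inhibits growth by half. At the TGI there is no net growth.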
# What was measured:
# Test in all cases: NCI tumour cell line growth inhibition, 48 h
# [1] = system: A498 renal
# [2] = system: MCF7 breast
# [3] = system: T-47D breast
# [4] = system: SNB-19 CNS
# [5] = system: HCT-116 colon
# [6] = system: NCI-H522 lung
# [7] = system: MALME-3M melanoma
# [8] = system: SF-539 CNS
# [9] = system: UACC-62 melanoma
# [10] = system: TK-10 renal
# [11] = system: CAKI-1 renal
# [12] = system: NCI-H226 lung
# [13] = system: HL-60(TB) leukemia
# [14] = system: UACC-257 melanoma
# [15] = system: RPMI-8226 leukemia
# [16] = system: OVCAR-8 ovarian
# [17] = system: MDA-MB-231 breast
# [18] = system: DU-145 prostate
# [19] = system: UO-31 renal
# [20] = system: HS 578T breast
# [21] = system: HCT-15 colon
# [22] = system: KM12 colon
# [23] = system: RXF 393 renal
# [24] = system: NCI/ADR-RES ovarian
# [25] = system: EKVX NSCLC
# [26] = system: SF-268 CNS
# [27] = system: K-562 leukemia
# [28] = system: PC-3 prostate
# [29] = system: SW-620 colon
# [30] = system: CCRF-CEM leukemia
# [31] = system: A549 NSCLC
# [32] = system: MDA-MB-468 breast
# [33] = system: OVCAR-4 ovarian
# [34] = system: IGROV1 ovarian
# [35] = system: SK-MEL-5 melanoma
# [36] = system: HCC-2998 colon
# [37] = system: OVCAR-5 ovarian
# [38] = system: M14 melanoma
# [39] = system: NCI-H23 lung
# [40] = system: SK-OV-3 ovarian
# [41] = system: COLO 205 colon
# [42] = system: HOP-92 NSCLC
# [43] = system: HOP-62 NSCLC
# [44] = system: SNB-75 CNS
# [45] = system: SR leukemia
# [46] = system: HT29 colon
# [47] = system: SK-MEL-2 melanoma
# [48] = system: SK-MEL-28 melanoma
# [49] = system: LOX IMVI melanoma
# [50] = system: MOLT-4 leukemia
# [51] = system: SN12C renal
# [52] = system: BT-549 breast
# [53] = system: NCI-H460 lung
# [54] = system: SF-295 CNS
# [55] = system: ACHN renal
# [56] = system: MDA-MB-435
# [57] = system: U251 CNS
# [58] = system: 786-0 renal
# [59] = system: OVCAR-3 ovarian
structure (smiles),measurement,setting,value
CCCCN1C(=O)/C(=C\C(=O)c2cc3ccccc3oc2=O)c2ccccc21,GI50,[1],> 100 µM
same,TGI,[1],> 100 µM
same,GI50,[2],12.6 µM
same,TGI,[2],28.7 µM
same,GI50,[3],14 µM
same,TGI,[3],28.7 µM
same,GI50,[4],> 100 µM
same,TGI,[4],> 100 µM
same,GI50,[5],16.3 µM
same,TGI,[5],31.1 µM
same,GI50,[6],14.3 µM
same,TGI,[6],28.7 µM
same,GI50,[7],13.7 µM
same,TGI,[7],26.7 µM
same,GI50,[8],16.2 µM
same,TGI,[8],30 µM
same,GI50,[9],14.6 µM
same,TGI,[9],29.7 µM
same,GI50,[10],20.9 µM
same,TGI,[10],35.8 µM
same,GI50,[11],14.2 µM
same,TGI,[11],27.8 µM
same,GI50,[12],14.4 µM
same,TGI,[12],31.7 µM
same,GI50,[13],3.06 µM
same,TGI,[13],11.9 µM
same,GI50,[14],14.7 µM
same,TGI,[14],31.3 µM
same,GI50,[15],19.9 µM
same,TGI,[15],54.4 µM
same,GI50,[16],18.3 µM
same,TGI,[16],47.5 µM
same,GI50,[17],14.3 µM
same,TGI,[17],27.6 µM
same,GI50,[18],16.7 µM
same,TGI,[18],33.2 µM
same,GI50,[19],11.4 µM
same,TGI,[19],23.7 µM
same,GI50,[20],20.7 µM
same,TGI,[20],> 100 µM
same,GI50,[21],15.6 µM
same,TGI,[21],30.7 µM
same,GI50,[22],> 100 µM
same,TGI,[22],> 100 µM
same,GI50,[23],15.7 µM
same,TGI,[23],29.6 µM
same,GI50,[24],22.9 µM
same,TGI,[24],64.3 µM
same,GI50,[25],15.5 µM
same,TGI,[25],32 µM
same,GI50,[26],16.9 µM
same,TGI,[26],36.3 µM
same,GI50,[27],11.6 µM
same,TGI,[27],84.7 µM
same,GI50,[28],32.2 µM
same,TGI,[28],> 100 µM
same,GI50,[29],14.3 µM
same,TGI,[29],29.7 µM
same,GI50,[30],4.26 µM
same,TGI,[30],24.2 µM
same,GI50,[31],> 100 µM
same,TGI,[31],> 100 µM
same,GI50,[32],4.5 µM
same,TGI,[32],17.8 µM
same,GI50,[33],16.9 µM
same,TGI,[33],35.4 µM
same,GI50,[34],24.5 µM
same,TGI,[34],94.8 µM
same,GI50,[35],48.7 µM
same,TGI,[35],> 100 µM
same,GI50,[36],> 100 µM
same,TGI,[36],> 100 µM
same,GI50,[37],30.6 µM
same,TGI,[37],> 100 µM
same,GI50,[38],14.8 µM
same,TGI,[38],29.3 µM
same,GI50,[39],27.4 µM
same,TGI,[39],> 100 µM
same,GI50,[40],> 100 µM
same,TGI,[40],> 100 µM
same,GI50,[41],17 µM
same,TGI,[41],31.1 µM
same,GI50,[42],13 µM
same,TGI,[42],27.7 µM
same,GI50,[43],> 100 µM
same,TGI,[43],> 100 µM
same,GI50,[44],19 µM
same,TGI,[44],> 100 µM
same,GI50,[45],23 µM
same,TGI,[45],86.1 µM
same,GI50,[46],20.3 µM
same,TGI,[46],41.2 µM
same,GI50,[47],52 µM
same,TGI,[47],> 100 µM
same,GI50,[48],15.5 µM
same,TGI,[48],29.1 µM
same,GI50,[49],15.2 µM
same,TGI,[49],28.7 µM
same,GI50,[50],22.4 µM
same,TGI,[50],64 µM
same,GI50,[51],14.7 µM
same,TGI,[51],30 µM
same,GI50,[52],19.4 µM
same,TGI,[52],70.1 µM
same,GI50,[53],> 100 µM
same,TGI,[53],> 100 µM
same,GI50,[54],> 100 µM
same,TGI,[54],> 100 µM
same,GI50,[55],13.4 µM
same,TGI,[55],26.1 µM
same,GI50,[56],17.6 µM
same,TGI,[56],41.6 µM
same,GI50,[57],> 100 µM
same,TGI,[57],> 100 µM
same,GI50,[58],18 µM
same,TGI,[58],31.9 µM
same,GI50,[59],15.2 µM
same,TGI,[59],29.7 µM
